One test addresses T1, ABCG2 (Homo sapiens, UniProt Q9UNQ0).
T1 sequence (Q9UNQ0 1-655): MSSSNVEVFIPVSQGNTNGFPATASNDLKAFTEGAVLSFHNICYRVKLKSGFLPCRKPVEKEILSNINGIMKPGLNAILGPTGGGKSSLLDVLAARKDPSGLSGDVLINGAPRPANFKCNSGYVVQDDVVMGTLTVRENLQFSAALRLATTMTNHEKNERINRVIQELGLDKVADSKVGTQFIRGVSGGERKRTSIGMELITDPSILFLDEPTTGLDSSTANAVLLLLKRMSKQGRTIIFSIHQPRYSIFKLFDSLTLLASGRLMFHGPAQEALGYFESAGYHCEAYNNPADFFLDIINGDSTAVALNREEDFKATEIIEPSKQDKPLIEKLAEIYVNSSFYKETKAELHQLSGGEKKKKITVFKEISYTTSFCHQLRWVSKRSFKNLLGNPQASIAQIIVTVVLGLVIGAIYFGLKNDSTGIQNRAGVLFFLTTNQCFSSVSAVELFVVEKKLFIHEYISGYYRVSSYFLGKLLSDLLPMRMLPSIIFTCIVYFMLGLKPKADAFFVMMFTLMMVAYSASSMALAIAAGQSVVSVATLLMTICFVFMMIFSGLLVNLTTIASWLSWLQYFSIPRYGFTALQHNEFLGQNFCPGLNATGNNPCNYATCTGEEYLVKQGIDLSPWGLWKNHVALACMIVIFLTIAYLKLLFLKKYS
Description: biochemical.

Another test has as its target ABCB1 (Homo sapiens, UniProt P08183). Description: biochemical.

pIC50: −log10 of the molar value.

One compound from publication PMC3743865, “The FLT3 Inhibitor Quizartinib Inhibits ABCG2 at Pharmacologically Relevant Concentrations, with Implications for Both Chemosensitization and Adverse Drug Interactions” (PLoS ONE, 2013) can be followed below.

As a reminder, the pIC50 is the IC50 on a negative log10 scale, so that one unit is a factor of ten. Read a high pIC50 as a small IC50.

Sequence of ABCB1 (P08183 whole entry): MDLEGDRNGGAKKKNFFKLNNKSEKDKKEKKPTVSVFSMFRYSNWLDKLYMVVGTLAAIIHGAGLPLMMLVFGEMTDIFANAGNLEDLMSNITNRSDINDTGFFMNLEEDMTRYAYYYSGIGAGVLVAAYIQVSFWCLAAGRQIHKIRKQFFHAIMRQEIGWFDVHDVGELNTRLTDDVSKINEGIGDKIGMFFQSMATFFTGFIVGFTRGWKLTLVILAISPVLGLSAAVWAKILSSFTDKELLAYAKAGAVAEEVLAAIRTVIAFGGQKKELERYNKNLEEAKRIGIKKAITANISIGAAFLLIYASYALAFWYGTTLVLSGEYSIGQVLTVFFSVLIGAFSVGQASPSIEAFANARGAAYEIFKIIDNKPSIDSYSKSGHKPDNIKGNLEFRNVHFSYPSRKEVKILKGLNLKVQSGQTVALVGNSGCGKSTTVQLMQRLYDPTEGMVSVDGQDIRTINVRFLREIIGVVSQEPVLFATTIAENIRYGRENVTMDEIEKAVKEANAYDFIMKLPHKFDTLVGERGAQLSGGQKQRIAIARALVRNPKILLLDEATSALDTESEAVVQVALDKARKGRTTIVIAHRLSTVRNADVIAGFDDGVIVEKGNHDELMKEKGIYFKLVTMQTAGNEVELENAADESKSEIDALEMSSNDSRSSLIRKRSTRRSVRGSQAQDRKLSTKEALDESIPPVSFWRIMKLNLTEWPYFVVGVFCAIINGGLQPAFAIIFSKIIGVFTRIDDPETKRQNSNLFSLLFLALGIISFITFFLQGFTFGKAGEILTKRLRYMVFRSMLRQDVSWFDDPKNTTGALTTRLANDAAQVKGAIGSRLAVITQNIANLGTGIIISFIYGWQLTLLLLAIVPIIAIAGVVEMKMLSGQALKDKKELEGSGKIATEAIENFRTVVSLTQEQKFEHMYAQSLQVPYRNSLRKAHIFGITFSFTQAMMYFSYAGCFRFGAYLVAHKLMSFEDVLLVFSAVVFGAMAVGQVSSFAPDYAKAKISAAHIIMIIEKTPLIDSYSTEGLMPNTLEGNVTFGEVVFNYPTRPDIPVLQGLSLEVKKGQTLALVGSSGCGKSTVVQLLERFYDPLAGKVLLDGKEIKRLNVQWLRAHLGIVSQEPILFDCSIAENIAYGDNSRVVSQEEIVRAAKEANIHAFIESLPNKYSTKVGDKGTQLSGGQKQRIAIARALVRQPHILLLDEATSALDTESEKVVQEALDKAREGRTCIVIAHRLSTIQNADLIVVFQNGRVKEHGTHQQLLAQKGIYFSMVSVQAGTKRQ

As for `CC(C)(C)c1cc(NC(=O)Nc2ccc(-c3cn4c(n3)sc3cc(OCCN5CCOCC5)ccc34)cc2)no1` [quizartinib], the figures for the negative-log IC50 (pIC50) at ABCG2 and at ABCB1 were 7.15 and 5.48, respectively.
